Measurements from publication PMC10959927, “Platinum iodido drugs show potential anti-tumor activity, affecting cancer cell metabolism and inducing ROS and senescence in gastrointestinal cancer cells” (Communications Biology, 2024).
Where “and” joins values, the source holds several entries; their conditions need not be identical. Equal values may be shown once.

Assays:
Type in all cases: cell-based, human
MKN45 cells [1] = assay: Seahorse XF OCR, ECAR and energy map; design: Basal resp. / Maximal resp. / SRC: unit not given here; settings: MKN45, IC50 24 h
Method: (§1) Oxygen Consumption Rate (OCR), Extra Cellular Acidification Rate (ECAR) and Energy map measurements. Cells were plated in XF HS Miniplates (Seahorse Bioscience) at a cellular density of 1 × 10^4 cells/well and incubated overnight. […] After an OCR baseline measurement, the minimum oxygen consumption was determined by adding 1.5 µM oligomycin (O) and the maximal respiration rate was assessed by adding 1 µM carbonyl cyanide p-trifluoro methoxyphenylhydrazone (FCCP, F). At the end of the experiment, the non-mitochondrial oxygen consumption was evaluated by adding both 0.5 µM rotenone (R) and antimycin (A). Experiments were run in a XF HS Mini analyzer (Seahorse Agilent), and raw data were normalized to total protein using a BCA protein assay kit (Cat. no. 23225, Thermo Scientific).

PANC1 cells [2] = assay: Seahorse XF OCR, ECAR and energy map; design: Basal resp. / Maximal resp. / SRC: unit not given here; settings: PANC1, IC50 24 h
Method: as §1

AGS cells [3] = assay: Seahorse XF OCR, ECAR and energy map; settings: AGS, IC50 24 h
Method: as §1

MKN45 cells [4] = assay: Lactate production assay; settings: replicates
Method: (§2) Lactate production assay. […] Proteins were removed from 50 μL of the medium by adding 100 μL of 8% Percloric Acid and 40% EtOH at 4 °C, and centrifuging at 2 × 10^4 g for 10 min at 4 °C. The supernatants were then frozen until the lactate in 15 μL of each sample, or lactate standard, was measured mixed with 150 μl of assay buffer (0.5 M glycine [pH 9.5], 0.2 M Hydrazine, 3.4 mM EDTA), 100 μl of H20, 5 μL of 1100 U/mL LDH (Roche) and 30 μL of 15 mM NAD + . NADH production was evaluated by measuring absorbance at 340 nm in a multiplate reader (Synergy HT, Biotek) and it was proportional to the lactic acid concentration in the sample after a 2 h incubation. The lactate concentration was normalized to the total amount of protein measured with the Micro BCA Protein Assay Kit (Thermo Scientific). Assays were performed in triplicate in three independent experiments.

AGS cells [5] = assay: Lactate production assay; settings: replicates
Method: as §2

PANC1 cells [6] = assay: Lactate production assay; settings: replicates
Method: as §2

MKN45 cells [7] = assay: ATP determination assay (bioluminescence); settings: replicates
Method: (§3) ATP determination assay. […] The analysis was performed using the ATP Bioluminescense Assay Kit CLS II (Cat. no. 11699695001, Roche) according to the manufacturer’s instructions. […] Data were normalized to total protein using the BCA protein assay kit (Thermo Scientific).

AGS cells [8] = assay: ATP determination assay (bioluminescence); settings: replicates
Method: as §3

PANC1 cells [9] = assay: ATP determination assay (bioluminescence); settings: replicates
Method: as §3

For CC(C)[NH][Pt@SP3]([I])([I])[NH]C(C)C [I5, trans-[PtI2(isopropylamine)2]], the Basal resp. (MKN45 cells [1]) was 41.12 and 25.16 and 29.99, the Maximal resp. (MKN45 cells [1]) was 70.47 and 41.2 and 48.53 and the SRC (MKN45 cells [1]) was 29.35 and 16.04 and 18.54. For the same compound, the “effect on ECAR” value (MKN45 cells [1]) was “strong effect”, the OCR (MKN45 cells [1]; time 1.53 min (I5) / 1.53 min (I6)) was 87.0221 pmoles/min/µg protein and 65.8202 pmoles/min/µg protein and 67.2404 pmoles/min/µg protein and the OCR (MKN45 cells [1]; time 8.04 min (I5) / 8.03 min (I6)) was 81.395 pmoles/min/µg protein and 60.0787 pmoles/min/µg protein and 61.987 pmoles/min/µg protein. For the same compound, the OCR (MKN45 cells [1]; time 14.51 min (I5) / 14.5 min (I6)) was 68.3352 pmoles/min/µg protein and 45.5888 pmoles/min/µg protein and 48.6636 pmoles/min/µg protein, the OCR (MKN45 cells [1]; time 40.66 min (I5) / 40.62 min (I6)) was 96.0748 pmoles/min/µg protein and 62.8442 pmoles/min/µg protein and 67.0243 pmoles/min/µg protein and the OCR (MKN45 cells [1]; time 53.68 min (I5) / 53.58 min (I6)) was 97.9086 pmoles/min/µg protein and 60.6467 pmoles/min/µg protein and 66.2231 pmoles/min/µg protein. For the same compound, the OCR (MKN45 cells [1]; time 60.27 min (I5) / 60.14 min (I6)) was 32.7644 pmoles/min/µg protein and 24.8353 pmoles/min/µg protein and 23.7602 pmoles/min/µg protein, the OCR (MKN45 cells [1]; time 66.75 min (I5) / 66.62 min (I6)) was 29.7633 pmoles/min/µg protein and 21.9547 pmoles/min/µg protein and 20.2025 pmoles/min/µg protein and the OCR (MKN45 cells [1]; time 73.23 min (I5) / 73.1 min (I6)) was 27.2124 pmoles/min/µg protein and 20.4304 pmoles/min/µg protein and 18.6726 pmoles/min/µg protein. For the same compound, the Basal resp. (PANC1 cells [2]) was 4.37 and 2.91 and 2.68, the “effect on ECAR” value (PANC1 cells [2]) was “strong effect” and the OCR (PANC1 cells [2]; time 14.5 min (I5) / 14.5 min (I6)) was 10.9576 pmoles/min/µg protein and 5.698 pmoles/min/µg protein and 5.804 pmoles/min/µg protein. For the same compound, the OCR (PANC1 cells [2]; time 21.08 min (I5) / 21.07 min (I6)) was 8.99 pmoles/min/µg protein and 4.967 pmoles/min/µg protein and 6.036 pmoles/min/µg protein, the OCR (PANC1 cells [2]; time 60.22 min (I5) / 60.14 min (I6)) was 6.526 pmoles/min/µg protein and 3.324 pmoles/min/µg protein and 3.875 pmoles/min/µg protein and the “effect on ECAR” value (AGS cells [3]) was “strong effect”. The OCR (AGS cells [3]; time 21.13 min (I5) / 21.08 min (I6)) was 33.7993 pmoles/min/µg protein and 17.1923 pmoles/min/µg protein and 31.197 pmoles/min/µg protein, the OCR (AGS cells [3]; time 60.15 min (I5) / 60.16 min (I6)) was 22.0275 pmoles/min/µg protein and 13.2859 pmoles/min/µg protein and 22.5877 pmoles/min/µg protein and the OCR (AGS cells [3]; time 66.63 min (I5) / 66.65 min (I6)) was 21.2372 pmoles/min/µg protein and 12.4063 pmoles/min/µg protein and 20.3044 pmoles/min/µg protein. For the same compound, the OCR (AGS cells [3]; time 73.12 min (I5) / 73.14 min (I6)) was 19.5577 pmoles/min/µg protein and 11.425 pmoles/min/µg protein and 19.4877 pmoles/min/µg protein, the lactate assay (MKN45 cells [4]) was 3.26 Lactate mM/mg prot and 4 Lactate mM/mg prot and 1.31 Lactate mM/mg prot and 1.423 Lactate mM/mg prot and 0.8373 Lactate mM/mg prot and 1.863 Lactate mM/mg prot and 1.55 Lactate mM/mg prot and 1.53 Lactate mM/mg prot and 1.48 Lactate mM/mg prot and the lactate assay (AGS cells [5]) was 1.16 Lactate mM/mg prot and 3.26 Lactate mM/mg prot and 1.86 Lactate mM/mg prot and 0.01 Lactate mM/mg prot and 0.05431 Lactate mM/mg prot and 0.02716 Lactate mM/mg prot and 0.02 Lactate mM/mg prot and 0.03 Lactate mM/mg prot. For the same compound, the lactate assay (PANC1 cells [6]) was 5.32 Lactate mM/mg prot and 7.44 Lactate mM/mg prot and 7.29 Lactate mM/mg prot and 4.009 Lactate mM/mg prot and 7.435 Lactate mM/mg prot and 6.316 Lactate mM/mg prot and 4.98 Lactate mM/mg prot and 4.88 Lactate mM/mg prot and 4.97 Lactate mM/mg prot, the ATP assay (MKN45 cells [7]) was 11672 nmoles ATP/mg prot and 496.26 nmoles ATP/mg prot and 8257.16 nmoles ATP/mg prot and 8443 nmoles ATP/mg prot and 9557.85 nmoles ATP/mg prot and 7684.95 nmoles ATP/mg prot and 11572 nmoles ATP/mg prot and 11682.5 nmoles ATP/mg prot and 9034.25 nmoles ATP/mg prot and the ATP assay (AGS cells [8]) was 8571 nmoles ATP/mg prot and 150.2 nmoles ATP/mg prot and 0.01 nmoles ATP/mg prot and 0.05 nmoles ATP/mg prot and 4895.31 nmoles ATP/mg prot and 5882.71 nmoles ATP/mg prot and 4424 nmoles ATP/mg prot and 7769.74 nmoles ATP/mg prot and 709.57 nmoles ATP/mg prot. The ATP assay (PANC1 cells [9]) was 7640.3 nmoles ATP/mg prot and 496.05 nmoles ATP/mg prot and 2595.09 nmoles ATP/mg prot and 2106 nmoles ATP/mg prot and 8408.46 nmoles ATP/mg prot and 9059.04 nmoles ATP/mg prot and 9127 nmoles ATP/mg prot and 10292.6 nmoles ATP/mg prot and 9600 nmoles ATP/mg prot.
